Read-outs that look alike come from different tables or passages of the source. Values belong to the compound of their own block, whether it stands above or below them.
How the values were obtained:
DDR1 = DDR1 (Homo sapiens, UniProt Q08345); assay: HotSpot in vitro kinase radiometric assay; assay type: biochemical; set-up: purchased Reaction Biology (HotSpot contract assay)
FGR = target: T1, FGR (Homo sapiens, UniProt P09769); assay: HotSpot in vitro kinase radiometric assay; assay type: biochemical; settings: FGR, 10uM, ATP 50 uM, Data 1, Data 2
T1 construct: purchased Reaction Biology (HotSpot contract assay)

LCK = target: T2, LCK (Homo sapiens, UniProt P06239); assay: HotSpot in vitro kinase radiometric assay; assay type: biochemical; settings: LCK, 10uM, ATP 15 uM, Data 1, Data 2
T2 construct: purchased Reaction Biology (HotSpot contract assay)

382 unique human kinases = assay: biochemical; assay type: biochemical; settings: cutoff of >85% inhibition at 10 μM; luminespib and ganetespib large kinome panel, others 16-kinase panel
HSP90AB1 = tested on: HSP90AB1; set-up: method as in ChEMBL23 (accessed: 23/08/2018); settings: average of reported values; ref ChEMBL23 (accessed: 23/08/2018); cited from earlier work
c-Src = target: T3, c-Src (Homo sapiens, UniProt P12931); assay: HotSpot in vitro kinase radiometric assay; assay type: biochemical; settings: c-Src, 10uM, ATP 15 uM, Data 1, Data 2
T3 construct: purchased Reaction Biology (HotSpot contract assay)
Procedure: (§1) Accordingly, we selected five additional representative HSP90 inhibitors, at least one from each chemical class, including both synthetic inhibitors and natural products. […]
(§2) This radioisotope binding assay was designed to directly detect the true product without the use of modified substrates, coupling enzymes, or detection antibodies thus enabling to directly measure inhibition of catalytic activity. Test or control compounds were incubated with kinase, substrate, cofactors, and radioisotope-labeled ATP (32P-ɣ-ATP or 33P-ɣ-ATP). The reaction mixtures were then spotted onto filter papers, which bind the radioisotope-labeled catalytic product.

PDK2/PDHK2 = target: T4, PDK2/PDHK2 (Homo sapiens, UniProt Q15119); assay: HotSpot in vitro kinase radiometric assay; assay type: biochemical; settings: PDK2/PDHK2, 10uM, ATP 15 uM, Data 1, Data 2
T4 construct: purchased Reaction Biology (HotSpot contract assay)
Procedure: as §1, §2

PDK4/PDKH4 = target: T5, PDK4/PDKH4 (Homo sapiens, UniProt Q16654); assay: HotSpot in vitro kinase radiometric assay; assay type: biochemical; settings: PDK4/PDKH4, 10uM, ATP 30 uM, Data 1, Data 2
T5 construct: purchased Reaction Biology (HotSpot contract assay)
T5 sequence (Q16654 whole entry): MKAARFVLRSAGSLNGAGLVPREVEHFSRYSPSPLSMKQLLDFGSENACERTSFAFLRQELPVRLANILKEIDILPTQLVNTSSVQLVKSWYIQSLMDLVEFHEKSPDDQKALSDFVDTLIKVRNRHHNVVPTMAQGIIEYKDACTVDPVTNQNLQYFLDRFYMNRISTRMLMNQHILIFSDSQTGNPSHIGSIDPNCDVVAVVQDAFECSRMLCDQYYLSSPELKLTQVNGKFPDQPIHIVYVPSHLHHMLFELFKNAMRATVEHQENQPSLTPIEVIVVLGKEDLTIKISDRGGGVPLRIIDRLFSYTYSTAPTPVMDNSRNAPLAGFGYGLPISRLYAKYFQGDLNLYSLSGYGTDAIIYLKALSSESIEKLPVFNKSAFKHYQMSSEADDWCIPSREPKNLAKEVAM
Procedure: as §1, §2

LYN B = target: T6, LYN B (Homo sapiens, UniProt P07948); assay: HotSpot in vitro kinase radiometric assay; assay type: biochemical; settings: LYN B, 10uM, ATP 20 uM, Data 1, Data 2
T6 construct: purchased Reaction Biology (HotSpot contract assay)
T6 sequence (P07948 1-491 isoform P07948-2): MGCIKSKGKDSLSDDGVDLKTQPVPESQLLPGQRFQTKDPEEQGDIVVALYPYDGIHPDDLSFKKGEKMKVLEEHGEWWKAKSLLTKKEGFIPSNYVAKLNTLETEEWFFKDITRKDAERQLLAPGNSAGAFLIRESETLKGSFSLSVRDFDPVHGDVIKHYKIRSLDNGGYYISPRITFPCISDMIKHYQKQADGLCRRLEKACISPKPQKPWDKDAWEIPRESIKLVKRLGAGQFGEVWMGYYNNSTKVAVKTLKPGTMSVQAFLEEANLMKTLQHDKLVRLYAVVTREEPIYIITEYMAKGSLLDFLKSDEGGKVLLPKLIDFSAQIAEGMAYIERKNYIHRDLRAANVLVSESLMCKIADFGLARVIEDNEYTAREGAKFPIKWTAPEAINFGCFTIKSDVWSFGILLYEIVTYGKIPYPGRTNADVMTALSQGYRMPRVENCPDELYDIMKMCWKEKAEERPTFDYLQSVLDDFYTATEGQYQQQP
Procedure: as §1, §2

BLK = target: T7, BLK (Homo sapiens, UniProt P51451); assay: HotSpot in vitro kinase radiometric assay; assay type: biochemical; settings: BLK, 10uM, ATP 10 uM, Data 1, Data 2
T7 construct: purchased Reaction Biology (HotSpot contract assay)
Procedure: as §1, §2

ABL2/ARG = target: T8, ABL2/ARG (Homo sapiens, UniProt P42684); assay: HotSpot in vitro kinase radiometric assay; assay type: biochemical; settings: ABL2/ARG, 10uM, ATP 30 uM, Data 1, Data 2
T8 construct: purchased Reaction Biology (HotSpot contract assay)

FYN = target: T9, FYN (Homo sapiens, UniProt P06241); assay: HotSpot in vitro kinase radiometric assay; assay type: biochemical; settings: FYN, 10uM, ATP 30 uM, Data 1, Data 2
T9 construct: purchased Reaction Biology (HotSpot contract assay)
T9 sequence (P06241 whole entry): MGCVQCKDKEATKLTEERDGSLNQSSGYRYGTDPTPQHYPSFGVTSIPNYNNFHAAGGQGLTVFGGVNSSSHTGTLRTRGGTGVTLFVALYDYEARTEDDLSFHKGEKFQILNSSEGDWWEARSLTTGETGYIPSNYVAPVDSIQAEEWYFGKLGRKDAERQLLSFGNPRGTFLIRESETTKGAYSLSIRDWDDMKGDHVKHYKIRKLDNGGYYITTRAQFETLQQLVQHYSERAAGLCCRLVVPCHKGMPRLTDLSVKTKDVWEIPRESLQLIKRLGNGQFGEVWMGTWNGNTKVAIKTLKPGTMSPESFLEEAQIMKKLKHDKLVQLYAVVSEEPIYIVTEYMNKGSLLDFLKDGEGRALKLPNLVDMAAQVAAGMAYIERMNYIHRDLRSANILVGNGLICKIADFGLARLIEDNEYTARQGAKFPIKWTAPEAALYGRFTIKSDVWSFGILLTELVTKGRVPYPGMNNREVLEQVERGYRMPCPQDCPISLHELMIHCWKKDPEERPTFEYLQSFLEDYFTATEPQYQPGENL

PEAK1 = target: T10, PEAK1 (Homo sapiens, UniProt Q9H792); assay: HotSpot in vitro kinase radiometric assay; assay type: biochemical; settings: PEAK1, 10uM, ATP 30 uM, Data 1, Data 2
T10 construct: purchased Reaction Biology (HotSpot contract assay)

YES/YES1 = target: T11, YES/YES1 (Homo sapiens, UniProt P07947); assay: HotSpot in vitro kinase radiometric assay; assay type: biochemical; settings: YES/YES1, 10uM, ATP 50 uM, Data 1, Data 2
T11 construct: purchased Reaction Biology (HotSpot contract assay)
T11 sequence (P07947 whole entry): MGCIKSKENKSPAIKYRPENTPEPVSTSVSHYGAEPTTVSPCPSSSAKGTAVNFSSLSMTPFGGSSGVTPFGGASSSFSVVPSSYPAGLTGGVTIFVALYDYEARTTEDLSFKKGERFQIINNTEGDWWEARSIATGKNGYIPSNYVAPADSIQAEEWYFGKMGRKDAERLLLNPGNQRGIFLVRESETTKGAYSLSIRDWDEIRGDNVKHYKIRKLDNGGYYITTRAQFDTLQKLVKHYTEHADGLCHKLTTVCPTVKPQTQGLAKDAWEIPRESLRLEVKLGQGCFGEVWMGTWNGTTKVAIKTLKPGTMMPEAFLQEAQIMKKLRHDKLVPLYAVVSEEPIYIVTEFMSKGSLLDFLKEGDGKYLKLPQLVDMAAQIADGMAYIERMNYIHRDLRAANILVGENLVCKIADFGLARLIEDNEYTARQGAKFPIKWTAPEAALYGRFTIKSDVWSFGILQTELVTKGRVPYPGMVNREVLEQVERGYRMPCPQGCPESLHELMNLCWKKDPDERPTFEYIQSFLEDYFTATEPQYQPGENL

PASK = target: T12, PASK (Homo sapiens, UniProt Q96RG2); assay: HotSpot in vitro kinase radiometric assay; assay type: biochemical; settings: PASK, 10uM, ATP 50 uM, Data 1, Data 2
T12 construct: purchased Reaction Biology (HotSpot contract assay)
T12 sequence (Q96RG2 whole entry): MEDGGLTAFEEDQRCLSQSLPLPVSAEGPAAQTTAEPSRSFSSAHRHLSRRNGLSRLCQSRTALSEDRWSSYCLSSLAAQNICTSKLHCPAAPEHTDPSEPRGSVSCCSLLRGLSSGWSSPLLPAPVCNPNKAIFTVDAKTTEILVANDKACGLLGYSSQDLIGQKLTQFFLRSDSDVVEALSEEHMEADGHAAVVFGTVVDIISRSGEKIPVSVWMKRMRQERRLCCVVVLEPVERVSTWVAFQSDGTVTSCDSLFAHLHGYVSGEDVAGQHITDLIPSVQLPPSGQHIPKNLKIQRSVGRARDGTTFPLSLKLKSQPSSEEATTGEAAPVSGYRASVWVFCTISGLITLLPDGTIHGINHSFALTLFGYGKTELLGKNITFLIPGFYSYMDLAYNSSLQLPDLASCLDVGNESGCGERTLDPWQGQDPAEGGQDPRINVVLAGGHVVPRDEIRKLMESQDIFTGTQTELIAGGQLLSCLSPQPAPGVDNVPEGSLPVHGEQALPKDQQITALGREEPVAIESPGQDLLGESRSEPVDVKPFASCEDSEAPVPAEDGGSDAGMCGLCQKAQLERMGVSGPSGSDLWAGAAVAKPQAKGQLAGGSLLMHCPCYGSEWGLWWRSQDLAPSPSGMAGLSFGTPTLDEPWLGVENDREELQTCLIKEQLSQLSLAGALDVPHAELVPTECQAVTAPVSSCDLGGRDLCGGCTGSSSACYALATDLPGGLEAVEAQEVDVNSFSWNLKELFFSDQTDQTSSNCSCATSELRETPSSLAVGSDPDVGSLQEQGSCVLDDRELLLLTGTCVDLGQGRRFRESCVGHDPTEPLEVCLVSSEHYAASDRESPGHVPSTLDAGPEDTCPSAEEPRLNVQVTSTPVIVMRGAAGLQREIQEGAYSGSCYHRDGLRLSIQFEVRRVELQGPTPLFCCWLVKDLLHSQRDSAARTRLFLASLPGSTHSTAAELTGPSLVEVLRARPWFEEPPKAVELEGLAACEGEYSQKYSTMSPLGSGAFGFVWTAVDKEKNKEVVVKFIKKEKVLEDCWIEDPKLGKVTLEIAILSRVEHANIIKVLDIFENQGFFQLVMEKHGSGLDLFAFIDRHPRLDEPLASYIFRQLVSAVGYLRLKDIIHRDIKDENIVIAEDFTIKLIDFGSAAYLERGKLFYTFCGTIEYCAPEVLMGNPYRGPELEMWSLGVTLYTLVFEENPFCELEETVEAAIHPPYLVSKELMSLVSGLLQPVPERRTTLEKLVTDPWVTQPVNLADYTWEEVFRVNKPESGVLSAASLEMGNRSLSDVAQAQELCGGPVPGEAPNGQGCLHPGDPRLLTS
Excerpt: (§3) Accordingly, we selected five additional representative HSP90 inhibitors, at least one from each chemical class, including both synthetic inhibitors and natural products.
(§4) Accordingly, we screened the hit compound and the two leads for kinase off-target inhibition using the 16-kinase panel and the same in vitro catalytic assay used previously.
as §2

TRKA = target: T13, TRKA (Homo sapiens, UniProt P04629); assay: HotSpot in vitro kinase radiometric assay; assay type: biochemical; settings: TRKA, 10uM, ATP 100 uM, Data 1, Data 2
T13 construct: purchased Reaction Biology (HotSpot contract assay)
Excerpt: as §3, §4, §2

16-kinase panel = 16-kinase panel screening, in vitro radiometric assay; assay type: biochemical, human; settings: 10 μM
TRKC = target: T14, TRKC (Homo sapiens, UniProt Q16288); assay: HotSpot in vitro kinase radiometric assay; assay type: biochemical; settings: TRKC, 10uM, ATP 100 uM, Data 1, Data 2
T14 construct: purchased Reaction Biology (HotSpot contract assay)
T14 sequence (Q16288 32-839): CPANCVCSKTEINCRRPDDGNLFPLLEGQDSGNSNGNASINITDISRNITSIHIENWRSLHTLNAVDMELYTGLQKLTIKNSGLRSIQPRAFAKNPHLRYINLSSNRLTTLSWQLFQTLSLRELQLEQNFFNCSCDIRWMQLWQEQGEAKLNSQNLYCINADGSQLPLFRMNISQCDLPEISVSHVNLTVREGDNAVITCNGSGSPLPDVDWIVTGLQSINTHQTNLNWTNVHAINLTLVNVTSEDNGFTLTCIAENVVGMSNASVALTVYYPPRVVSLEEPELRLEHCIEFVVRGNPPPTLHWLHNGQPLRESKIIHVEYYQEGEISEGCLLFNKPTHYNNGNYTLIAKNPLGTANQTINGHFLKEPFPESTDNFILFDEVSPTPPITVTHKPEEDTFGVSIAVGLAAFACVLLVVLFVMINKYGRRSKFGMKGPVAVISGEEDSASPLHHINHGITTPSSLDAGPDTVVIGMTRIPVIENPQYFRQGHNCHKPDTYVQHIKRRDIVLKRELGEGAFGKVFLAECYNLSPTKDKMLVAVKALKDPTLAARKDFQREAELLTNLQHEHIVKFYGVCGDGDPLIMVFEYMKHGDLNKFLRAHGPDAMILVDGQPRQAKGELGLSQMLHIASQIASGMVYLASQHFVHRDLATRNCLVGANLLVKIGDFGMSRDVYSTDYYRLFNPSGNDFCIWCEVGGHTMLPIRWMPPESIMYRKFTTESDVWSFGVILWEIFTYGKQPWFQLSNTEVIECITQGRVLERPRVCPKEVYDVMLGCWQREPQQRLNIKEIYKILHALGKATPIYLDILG

ABL1 = ABL1 (Homo sapiens, UniProt P00519); assay: HotSpot in vitro kinase radiometric assay; assay type: biochemical; set-up: purchased Reaction Biology (HotSpot contract assay); settings: ABL1, 10uM, ATP 40 uM, Data 1, Data 2
[1] = read-out: % Enzyme Activity (relative to DMSO controls)

Sequence of DDR1 (Q08345 19-913): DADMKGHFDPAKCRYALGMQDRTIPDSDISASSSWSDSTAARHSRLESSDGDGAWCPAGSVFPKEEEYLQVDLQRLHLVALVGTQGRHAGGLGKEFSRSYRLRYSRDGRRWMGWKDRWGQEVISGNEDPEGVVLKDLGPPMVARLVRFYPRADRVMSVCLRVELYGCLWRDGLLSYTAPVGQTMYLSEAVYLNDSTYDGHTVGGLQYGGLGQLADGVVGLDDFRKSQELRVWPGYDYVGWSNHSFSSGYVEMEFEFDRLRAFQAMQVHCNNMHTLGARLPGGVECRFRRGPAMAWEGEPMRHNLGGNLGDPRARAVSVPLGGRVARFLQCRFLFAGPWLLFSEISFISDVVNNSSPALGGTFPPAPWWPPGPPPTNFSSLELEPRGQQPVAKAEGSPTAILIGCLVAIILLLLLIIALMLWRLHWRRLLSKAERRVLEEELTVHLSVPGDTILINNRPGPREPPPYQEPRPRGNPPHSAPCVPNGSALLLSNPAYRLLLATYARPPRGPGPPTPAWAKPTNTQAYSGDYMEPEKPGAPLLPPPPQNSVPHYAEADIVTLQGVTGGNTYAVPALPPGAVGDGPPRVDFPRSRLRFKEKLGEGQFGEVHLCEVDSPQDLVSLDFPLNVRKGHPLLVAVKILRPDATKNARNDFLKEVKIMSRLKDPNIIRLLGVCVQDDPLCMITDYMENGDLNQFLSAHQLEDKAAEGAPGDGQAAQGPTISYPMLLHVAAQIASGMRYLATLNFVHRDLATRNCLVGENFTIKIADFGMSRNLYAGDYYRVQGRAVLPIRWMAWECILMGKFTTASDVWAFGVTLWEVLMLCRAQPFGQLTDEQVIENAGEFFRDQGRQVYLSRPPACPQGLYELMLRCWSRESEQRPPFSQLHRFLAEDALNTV

Compound: CN[C@@H]1C[C@H]2O[C@@](C)([C@@H]1OC)n1c3ccccc3c3c4c(c5c6ccccc6n2c5c31)C(=O)NC4 [Staurosporine]
DDR1 - % activty (DDR1): 87.08%
HILLSLOPE (DDR1; DDR1, single replicate curves): -1.76
DDR1 - % activty (DDR1; Stauro Conc. 1.25E-06 M): 0.78%
DDR1 - % activty (DDR1; Stauro Conc. 1.95E-08 M): 5.70%
DDR1 - % activty (DDR1; Stauro Conc. 2.00E-05 M): -0.41%
DDR1 - % activty (DDR1; Stauro Conc. 3.05E-10 M): 101.08%
DDR1 - % activty (DDR1; Stauro Conc. 4.88E-09 M): 36.56%
DDR1 - % activty (DDR1; Stauro Conc. 7.63E-11 M): 100.44%
DDR1 - % activty (DDR1; Stauro Conc. 7.81E-08 M): 1.19%

% Enzyme Activity (relative to DMSO controls) (FGR): 101.62%
remaining activity at 10 µM (FGR; [1]): 102%
% Enzyme Activity (relative to DMSO controls) (LCK): 100%
remaining activity at 10 µM (LCK; [1]): 100%
number of off-target kinases experimentally identified, In vitro binding (KinomeSCAN) (382 unique human kinases): 0
% Enzyme Activity (relative to DMSO controls) (DDR1; DDR1, 10uM, ATP 100 uM, Data 1, Data 2): 87.99%
remaining activity at 10 µM (DDR1; DDR1, 10uM, ATP 100 uM, Data 1, Data 2, read-out: % Enzyme Activity (relative to DMSO controls)): 106%
% Enzyme Activity (relative to DMSO controls) (c-Src): 97.5%
remaining activity at 10 µM (c-Src; [1]): 98.7%
% Enzyme Activity (relative to DMSO controls) (PDK2/PDHK2): 75.57%
remaining activity at 10 µM (PDK2/PDHK2; [1]): 79.6%
% Enzyme Activity (relative to DMSO controls) (PDK4/PDKH4): 96.17%
remaining activity at 10 µM (PDK4/PDKH4; [1]): 96.5%
% Enzyme Activity (relative to DMSO controls) (LYN B): 109.85%
remaining activity at 10 µM (LYN B; [1]): 110%
% Enzyme Activity (relative to DMSO controls) (BLK): 107.96%
remaining activity at 10 µM (BLK; [1]): 108%
% Enzyme Activity (relative to DMSO controls) (ABL2/ARG): 104.31%
remaining activity at 10 µM (ABL2/ARG; [1]): 105%
% Enzyme Activity (relative to DMSO controls) (FYN): 106.38%
remaining activity at 10 µM (FYN; [1]): 108%
% Enzyme Activity (relative to DMSO controls) (PEAK1): 102.81%
remaining activity at 10 µM (PEAK1; [1]): 104%
% Enzyme Activity (relative to DMSO controls) (YES/YES1): 99.53%
remaining activity at 10 µM (YES/YES1; [1]): 99.6%
% Enzyme Activity (relative to DMSO controls) (PASK): 105.18%
remaining activity at 10 µM (PASK; [1]): 100%
% Enzyme Activity (relative to DMSO controls) (TRKA): 99.91%
remaining activity at 10 µM (TRKA; [1]): 105%
activity against the 16-kinase panel (16-kinase panel): inactive
% Enzyme Activity (relative to DMSO controls) (TRKC): 89.51%
remaining activity at 10 µM (TRKC; [1]): 93%
% Enzyme Activity (relative to DMSO controls) (ABL1): 103.3%
remaining activity at 10 µM (ABL1; [1]): 105%
Compound: CC(C)c1cc(C(=O)N2Cc3ccc(CN4CCN(C)CC4)cc3C2)c(O)cc1O [Onalespib]
pActivity, HSP90AB1 (HSP90AB1): 6.99
